ChEMBL document CHEMBL1201862, “PubChem BioAssay data set” (2004)
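Briefly, cells in 96-well plates were exposed to five compound concentrations for 48 h, and endpoints were estimated by linear interpolation. The concentration for 50% growth inhibition is given as GI50.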 Active and inactive are the calls of the source. Cut-off read from the data, not from the text of the source: active = GI50 up to about 1.1 µM and inactive = higher.

Key:
Assay in all cases: DTP human tumour cell line panel, 48 h
[1] = system: SNB-19
[2] = system: OVCAR-8
[3] = system: XF498
[4] = system: SNB-75
[5] = system: EKVX
[6] = system: SF-295
[7] = system: DMS-273
[8] = system: M19-MEL
[9] = system: MOLT-4
[10] = system: NCI-H226
[11] = system: DMS-114
[12] = system: SW-620
[13] = system: A549
[14] = system: LXFL 529
[15] = system: SK-MEL-2
[16] = system: OVCAR-3
[17] = system: SF-539
[18] = system: LOX IMVI
[19] = system: SR
[20] = system: HOP-62
[21] = system: SF-268
[22] = system: SN12C
[23] = system: KM-20L2
[24] = system: COLO 205
[25] = system: HT-29
[26] = system: NCI-H460
[27] = system: M14
[28] = system: 786-0
[29] = system: ACHN
[30] = system: RXF 393
[31] = system: CCRF-CEM
[32] = system: UO-31
[33] = system: HL-60
[34] = system: SNB-78
[35] = system: SK-OV-3
[36] = system: U-251
[37] = system: NCI-H23
[38] = system: K562
[39] = system: IGROV-1
[40] = system: HOP-92
[41] = system: Malme-3M
[42] = system: KM12
[43] = system: OVCAR-5
[44] = system: UACC-62
[45] = system: RPMI-8226
[46] = system: UACC-257
[47] = system: HCT-15
[48] = system: A498
[49] = system: SK-MEL-28
[50] = system: SK-MEL-5
[51] = system: CAKI-1
[52] = system: HCT-116
[53] = system: HCC 2998
[54] = system: DLD-1
[55] = system: NCI-H522
[56] = system: TK-10

In the case of `C#CCC[C@@H]1O[C@@]1(C)CC/C=C(\C)CC/C=C/C=O`, the GI50 [1] is reported as 45.1 µM (inactive), the GI50 [2] is reported as 18.6 µM (inactive) and the GI50 [3] is reported as 24.2 µM (inactive). The GI50 [4] was 42.6 µM (inactive), the GI50 [5] was 58.3 µM (inactive) and the GI50 [6] was 26.5 µM (inactive). The GI50 [7] was 20 µM (inactive), the GI50 [8] was 24.2 µM (inactive) and the GI50 [9] was 22.4 µM (inactive). For the same molecule, the GI50 [10] was 60.3 µM (inactive), the GI50 [11] was 14.6 µM (inactive) and the GI50 [12] was 23.3 µM (inactive). For the same molecule, the GI50 [13] was 43.6 µM (inactive), the GI50 [14] was 20.1 µM (inactive) and the GI50 [15] was 55.7 µM (inactive). The GI50 [16] was 29.8 µM (inactive), the GI50 [17] was 18.2 µM (inactive) and the GI50 [18] was 18.4 µM (inactive). The GI50 [19] was 26.4 µM (inactive), the GI50 [20] was > 100 µM (inactive) and the GI50 [21] was 22.2 µM (inactive). For the same molecule, the GI50 [22] was 30.3 µM (inactive), the GI50 [23] was 36.4 µM (inactive) and the GI50 [24] was 26.7 µM (inactive). For the same molecule, the GI50 [25] was 37.2 µM (inactive), the GI50 [26] was 41.1 µM (inactive) and the GI50 [27] was 21.3 µM (inactive). The GI50 [28] was 73.5 µM (inactive), the GI50 [29] was 50.1 µM (inactive) and the GI50 [30] was 40.6 µM (inactive). The GI50 [31] was 23.3 µM (inactive), the GI50 [32] was 35.8 µM (inactive) and the GI50 [33] was 23.9 µM (inactive). For the same molecule, the GI50 [34] was 25.3 µM (inactive), the GI50 [35] was > 100 µM (inactive) and the GI50 [36] was 22 µM (inactive). The GI50 [37] was 29 µM (inactive), the GI50 [38] was 22.6 µM (inactive) and the GI50 [39] was 22.1 µM (inactive). For the same molecule, the GI50 [40] was 28.5 µM (inactive), the GI50 [41] was 20 µM (inactive) and the GI50 [42] was 36.9 µM (inactive). For the same molecule, the GI50 [43] was > 100 µM (inactive), the GI50 [44] was 17.9 µM (inactive) and the GI50 [45] was 19.3 µM (inactive). For the same molecule, the GI50 [46] was 23.6 µM (inactive) and the GI50 [47] was 35 µM.

In the case of `Nc1nc(N)c2ncn(CCOC(c3ccccc3)P(=O)(O)O)c2n1` (configuration not stated), the GI50 [48] is reported as > 100 µM (inactive), the GI50 [49] is reported as > 100 µM (inactive) and the GI50 [1] is reported as > 100 µM (inactive). The GI50 [2] was > 100 µM (inactive), the GI50 [3] was > 100 µM (inactive) and the GI50 [4] was > 100 µM (inactive). The GI50 [5] was > 100 µM (inactive), the GI50 [6] was > 100 µM (inactive) and the GI50 [7] was > 100 µM (inactive). The GI50 [8] was > 100 µM (inactive), the GI50 [9] was > 100 µM (inactive) and the GI50 [10] was > 100 µM (inactive). For the same molecule, the GI50 [11] was > 100 µM (inactive), the GI50 [12] was > 100 µM (inactive) and the GI50 [13] was > 100 µM (inactive). For the same molecule, the GI50 [15] was > 100 µM (inactive), the GI50 [16] was > 100 µM (inactive) and the GI50 [17] was > 100 µM (inactive). The GI50 [18] was > 100 µM (inactive), the GI50 [50] was > 100 µM (inactive) and the GI50 [19] was > 100 µM (inactive). For the same molecule, the GI50 [51] was > 100 µM (inactive), the GI50 [21] was > 100 µM (inactive) and the GI50 [22] was > 100 µM (inactive). The GI50 [23] was > 100 µM (inactive), the GI50 [24] was > 100 µM (inactive) and the GI50 [25] was > 100 µM (inactive). The GI50 [26] was > 100 µM (inactive), the GI50 [28] was > 100 µM (inactive) and the GI50 [29] was > 100 µM (inactive). For the same molecule, the GI50 [52] was > 100 µM (inactive), the GI50 [30] was > 100 µM (inactive) and the GI50 [31] was > 100 µM (inactive). For the same molecule, the GI50 [53] was > 100 µM (inactive), the GI50 [32] was > 100 µM (inactive) and the GI50 [54] was > 100 µM (inactive). For the same molecule, the GI50 [33] was > 100 µM (inactive), the GI50 [34] was > 100 µM (inactive) and the GI50 [35] was > 100 µM (inactive). For the same molecule, the GI50 [36] was > 100 µM (inactive), the GI50 [37] was > 100 µM (inactive) and the GI50 [39] was > 100 µM (inactive). For the same molecule, the GI50 [41] was > 100 µM (inactive), the GI50 [55] was > 100 µM (inactive) and the GI50 [42] was > 100 µM (inactive). For the same molecule, the GI50 [43] was > 100 µM (inactive), the GI50 [44] was > 100 µM (inactive) and the GI50 [46] was > 100 µM (inactive). The GI50 [56] was > 100 µM (inactive) and the GI50 [47] was over 100 µM.
